As a reminder, the solubility is the concentration that dissolves in the medium under given conditions. Low readings indicate a poorly soluble substance, high ones a readily soluble substance.

The subject of data set [1] is cultured hippocampal slices (normal brain tissue). Kind of data set: MTT cell viability assay on cultured hippocampal slices. It is filed as cell-based, mouse. Conditions: for cell viability (MTT) versus control: overnight, hippocampal slices. On the procedure: To assess the viability of the normal brain tissue in presence of the sweet curry MTT assay on cultured hippocampal slices were performed.
Mouse pups of specific ages were anesthetized with ketamine (100 mg/kg) and decapitated. Under sterile conditions, the brains were isolated and then cut at 60° from the longitudinal fissure at the top using a hippocampus-dissecting tool to expose the hippocampus. The hemispheres containing the hippocampi were then placed in modified Gey's balanced salt solution (mGBSS) at 4° C. for 30-40 minutes while bubbling a mixture of 95% O2 and 5% CO2. Individual hippocampi were isolated using dissection tool and then […] thick transverse slices were prepared using a tissue chopper (Stoelting, Wood Dale, Ill., USA). The slices were placed in ice cold mGBSS and inspected using a dissection microscope for the presence of uninterrupted bright transparent neuronal layers characteristic of the hippocampal structure. Only such slices were placed on Millicell CM filters (Millipore, Bedford, Mass., USA). The filters were placed in a six well dish with 1 ml of medium in each well. The slices were kept on high K^+ culture medium (25% horse serum, 50% Basal Essential Media-Eagles, 25% Eagle's Balanced Salt Solution (EBSS), 25 mM Na-HEPES, 1 mM Glutamine, 28 mM Glucose, pH 7.2) for the first two days. After incubation at 32° C. in a 5% CO2 atmosphere, the culture medium was changed to physiological K^+ slice culture medium (20% dialyzed fetal bovine serum, 5% Basal Essential Media-Eagles, and EBSS modified to adjust the K^+ concentration to 2.66 mM). After 20% dialyzed serum treatment for two days and the slices were placed in 5% serum medium (same medium as above but with 5% serum) for two days.
Hippocampal slices from adult mice brain were cultured as described by Mehta et al (2007). After six days in vitro the slices were treated with different concentrations of the sweet curry (i.e., 8 nM, 8 μM and 80 μM respectively) overnight along with the slices treated with the carrier as control.
After the treatment with sweet curry, slices from each treatment group were placed in 400 μl PBS in one well of 48-well plate and then treated with 200 μl of MTT (5 mg/ml) per well with gentle mixing at 37° C. for 2 hours. The slices were triturated to homogenize with the help of a micropipette. After that 800 μl of lysis buffer (20% SDS, 50% dimethylformamide) was added to each well and the plate was sealed and incubated overnight at 37° C. with gentle mixing. Now 100 μl mix from each well was taken in respective wells of a 96 well plate in triplicates and absorbance was measured at 570 nm using a plate reader. Results obtained were normalized to the total protein content and then expressed as percent carrier-treated samples.
On the technique in general: Formazan colour is commonly taken as a measure of viable cells.

The nature of data set [2]: Antioxidant potentiality assay by linoleic acid peroxidation (thiocyanide method). Conditions: in water, aqueous medium; FIG. 1. On the procedure:
0.28 gm of linoleic acid, 0.28 gm of tween 40 as emulsifier and 50 ml of phosphate buffer (0.2 M, pH 7) were used to prepare a linoleic acid emulsion. The curcuminoids (5 mg per ml) were dissolved in water and 0.5 ml of each one of them was pipetted out into different test-tubes. Then 2.5 ml of linoleic acid emulsion was added to each one of them followed by the addition of 2.5 ml of phosphate buffer. All the tubes were incubated at 37° C. for 7 days. The mixture prepared as above without test sample was the control one. At the regular interval of 24 hours, 0.1 ml of the aliquots were drawn out of the incubation mixture and mixed with 5 ml of 75% ethanol, 0.1 ml of 30% ammonium thiocyanate and 0.1 ml of 20 mM ferrous chloride in 3.5% HCl. The tubes were allowed to stand in room temperature for 3 minutes. Spectrophotometric analysis was done at 500 nm. All the tests were carried out in duplicate and averaged. Anoxidant activity=[1-increase in absorbance of the sample/increase in absorbance of control]*100.

Data set [3] addresses T1, Amyloid βeta (Aβeta) fragment 25-35 (Homo sapiens, UniProt P05067).
T1 construct: Amyloid βeta (Aβeta) fragment 25-35 (Sigma A-4559); purchased Sigma A-4559
The data set is described as follows: Dissolution of Amyloid beta fragments (transmission electron microscopy). It is filed as biochemical. The conditions noted are these: for concentration at which the compound works in dissolving amyloid aggregates: Aβeta 25-35 50 μg/ml, 37° C., 6 days. On the procedure: Amyloid βeta (Aβeta) fragment 25-35 (Sigma A-4559) was diluted in water to a stock of 1 mg/ml. […] Samples were incubated at 37° C. for 6 days. Aggregation of the protein fragment was determined using transmission electron microscopy. 200 mesh carbon coated grids (Electron Microscopy Sciences) were used and prepared for negative staining by adding 5 μl of incubation mixture to the grid surface for one minute, followed by drying the grid with filter paper and contrasting with 5 μl of freshly filtered 2% phosphotungstic acid (pH=7.2) for one minute. Once grids were dry, examination was done using the FEI Tecnai Spirit at the College of Staten Island's Advanced Imaging Facility. Micrographs were captured using an AMT CCD camera.

Data set [4] is described as follows: Solubility study via UV-Vis spectroscopy (direct solubility in water).
Description: Both sample were centrifuged at 13,000 RPM for 2 min. 100 μL of the sugar conjugate solution was added to 900 μL of deionized water and thoroughly mixed. […] It should be noted that the solubility study outlined above measures the direct solubility of the compounds in water and closely models “real life” conditions, in contrast to other experiments in which the compounds are first dissolved in other solvents followed by dilution in water.

Structures are written as SMILES. Values after ≈ are worked out from the molar mass of the structure shown. “Also recorded” adds a separate entry of the source.

Turning to `COc1cc(/C=C/C(=O)CC(=O)/C=C/c2ccc(OCc3cn(CCOCCOCCOC4OC(CO)C(O)C(O)C4O)nn3)c(OC)c2)ccc1O` (centres unmarked) [Compound 1d, curcumin-“Clicked”-mono-galactose], the “effect on normal brain tissue (viability), conclusion” value in data set [1] (8 nM to 80 μM) is “no harmful effect on the normal brain tissue”. Besides, the “cell viability (MTT) versus control” value in data set [1] (8 nM) is “near the control samples”; in data set [1] (8 μM), “near the control samples”; in data set [1] (80 μM) it was “a little higher than the control samples”. The “anti-oxidant potential (AOP), comparison in words” value in data set [2] is reported as “much better antioxidant than Curcumin 1 as well as other curcumin derivatives (1a,1b)”. Moreover, the “concentration at which the compound works in dissolving amyloid aggregates” value in data set [3] (electron micrographs) is reported as 8 nmol. In data set [3] (electron micrographs), the “effectiveness in dissolving amyloid aggregates” value is reported as “significantly more effective than curcumin in dissolving amyloid aggregates”. In data set [3] (ratio of working concentrations), the “effectiveness in dissolving amyloid aggregates relative to curcumin” value amounted to 1000 times. For the same compound, the concentration in solution in data set [4] (deionized water, water, thermodynamic from solid) (solubility) came to 6 mM (≈ 4460 µg/mL). Also, the “solubility in water relative to curcumin and derivatives” value in data set [4] (water (plasma model), listed as Sweet curry 1d) was “far superior solubility compared to curcumin in water; also recorded: superiorly soluble in water compared to Curcumin and derivatives 1a and 1b”.

For the compound `COc1cc(/C=C/C(=O)CC(=O)/C=C/c2ccc(O)c(OC)c2)ccc1O` [curcumin, (1E,6E)-1,7-bis(4-hydroxy-3-methoxyphenyl)hepta-1,6-diene 3,5-dione, reference compound], in data set [3] (electron micrographs), the “concentration at which the compound works in dissolving amyloid aggregates” value was found to be 8 µM.

The record behind these values is patent US9650404B2 (RESEARCH FOUNDATION OF THE CITY UNIVERSITY OF NEW YORK, priority 2010, dated 2017).
